From paper PMC4868737, “BAY 1024767 blocks androgen receptor mutants found in castration-resistant prostate cancer patients” (Oncotarget, 2016) come the findings set out here.

For one assay, the system named is LAPC-4 (AR wild-type). Briefly: Cell proliferation assay (Alamar Blue). The assay is classed as cell-based. The following applies: Homo sapiens, LAPC4, 168 h. The protocol: (§1) All assays were performed in 96-well microtiter plates. […] LAPC-4 cells were plated at 4,000 cells/well, VCaP cells at 16,000 cells/well, LNCaP cells at 2,000 cells/well, 22Rv1 cells at 4,000 cells/well. After 1 day, the cells were treated with R1881 (0.1 nM final concentration, except for LAPC-4 where the final concentration was 1 nM) and compound (day 0). Cell number was determined by Alamar Blue staining (2 h). Fluorescence was measured in a Victor3 device (PerkinElmer, Waltham, MA, USA) with the excitation filter set at 530 nm and the emission filter set at 590 nm. C0 was defined as the signal measured at day 7 for cells treated only with R1881 and CI was defined as the signal measured at day 7 for cells grown without R1881 or compound.

The test system of assay [1] is VCaP (AR wild-type, overexpressed). Nature of the assay: Cell proliferation assay (Alamar Blue). The following applies: Homo sapiens, 168 h. It counts as cell-based. The protocol:
as §1

Assay [2] deals with 22Rv1 (AR H874Y, splice variants). Nature of the assay: Cell proliferation assay (Alamar Blue). It counts as cell-based. The following applies: Homo sapiens, 22Rv1, 168 h. On the procedure: as §1
The test system of the next assay is LNCaP (AR 877A). Nature of the assay: Cell proliferation assay (Alamar Blue). To be noted: Homo sapiens, 168 h. It counts as cell-based. On the procedure:
as §1

Assay [3] deals with AR binding to PSA gene regulatory elements. Nature of the assay: Chromatin immunoprecipitation (ChIP) in VCaP cells. The following applies: 6 h, 1 nM R1881 with 5 μM compound.
Method: VCaP cells were grown in 10 cm plates to 80% confluence. One plate of cells was used per immunoprecipitation. The cells were maintained in DMEM-cFCS for 3 days prior to treatment. […] After cell lysis (5 mM PIPES pH 8, 85 mM KCl, 0.5 % Nonidet P40) and nuclei isolation using RIPA buffer, chromatin was sheared to 100-2000 base pair-long fragments using a S220 ultrasonicator (Covaris, Woburn, MA, USA).
Immunoprecipitations were performed using the IPstar device (Diagenode, Liège, Belgium) with 20 μL of magnetic Protein A bead suspension. […] The buffers used were: bead wash (10 mM Tris-HCl pH 8, 1 mM EDTA, 0.02 % Tween-20), wash 1 (20 mM Tris-HCl pH 8, 2 mM EDTA, 150 mM NaCl, 1 % Triton X-100, 0.1 % SDS), wash 2 (20 mM Tris-HCl pH 8, 2 mM EDTA, 500 mM NaCl, 1 % Triton X-100, 0.1 % SDS), wash 3 (10 mM Tris-HCl pH 8, 1 mM EDTA, 250 mM LiCl, 1 % Nonidet P40, 1 % sodium deoxycholate) and elute (0.1 M NaHCO3, 1 % SDS).
The samples were treated with RNaseA and Proteinase K, and were purified using the Qiagen PCR purification kit before analysis by qPCR.
Assay [4] deals with PSA and FKBP5 expression in VCaP cells (AR wild-type). Nature of the assay: mRNA expression of androgen target genes (real-time PCR). To be noted: 1 nM R1881, 24 h. The assay is classed as cell-based, human. On the procedure:
(§2) VCaP or LNCaP cells were seeded into 6-well plates in RPMI 1640 medium without phenol red, supplemented with 10% charcoal-stripped fetal calf serum (cFCS) and 2 mM stable glutamine, and maintained for 2 days prior to treatment. […] After 24 h treatment, total RNA was extracted using the RNeasy Mini Kit (Qiagen, Hilden, Germany) and reverse-transcription was performed using the SuperScript™ III First-Strand Synthesis SuperMix for qRT-PCR (Invitrogen, Carlsbad, […]). Transcript levels of AR target genes were determined by real-time PCR using the following assays (Applied Biosystems, Foster City, CA, USA): PSA Hs02576345_m1 and FKBP5 Hs00188025_m1. Human PPIA (Cyclophilin A) 4326316E was used as an internal control.

In assay [5] the test system is PSA and FKBP5 expression in LNCaP cells (AR T877A mutant). The assay is described as above. The assay is classed as cell-based, human. The following applies: 1 nM R1881, 24 h. The protocol: as §2
The target of another assay is AR T877A (Homo sapiens, UniProt P10275, T878A). Nature of the assay: cell-based. To be noted: IC50 (antagonistic activity).
Assay [6] has as its system AR wild-type and mutants L701H, E709Y, V715M, W741C, H874Y, F876L, T877A, M895T and M895V. Briefly: Transactivation assay, agonistic mode, transfected PC-3 cells, panel of AR variants. It counts as cell-based, human. To be noted: all AR variants tested; no R1881 added with test compound; luciferase after 20 h.
Method: Competitive binding to recombinant human AR was determined in presence of 5 nM tritiated R1881. PC-3 transfection and determination of luciferase activity were performed as before [49]. The test compounds were added with 0.1% ethanol (agonistic mode) or the indicated R1881 concentrations (antagonistic mode). The average value of six wells treated in parallel was taken. The experiments were repeated at least twice independently.
The target in another assay is T1, AR E709Y (Homo sapiens, UniProt P10275, E710Y).
T1 sequence (P10275 1-920 E710Y): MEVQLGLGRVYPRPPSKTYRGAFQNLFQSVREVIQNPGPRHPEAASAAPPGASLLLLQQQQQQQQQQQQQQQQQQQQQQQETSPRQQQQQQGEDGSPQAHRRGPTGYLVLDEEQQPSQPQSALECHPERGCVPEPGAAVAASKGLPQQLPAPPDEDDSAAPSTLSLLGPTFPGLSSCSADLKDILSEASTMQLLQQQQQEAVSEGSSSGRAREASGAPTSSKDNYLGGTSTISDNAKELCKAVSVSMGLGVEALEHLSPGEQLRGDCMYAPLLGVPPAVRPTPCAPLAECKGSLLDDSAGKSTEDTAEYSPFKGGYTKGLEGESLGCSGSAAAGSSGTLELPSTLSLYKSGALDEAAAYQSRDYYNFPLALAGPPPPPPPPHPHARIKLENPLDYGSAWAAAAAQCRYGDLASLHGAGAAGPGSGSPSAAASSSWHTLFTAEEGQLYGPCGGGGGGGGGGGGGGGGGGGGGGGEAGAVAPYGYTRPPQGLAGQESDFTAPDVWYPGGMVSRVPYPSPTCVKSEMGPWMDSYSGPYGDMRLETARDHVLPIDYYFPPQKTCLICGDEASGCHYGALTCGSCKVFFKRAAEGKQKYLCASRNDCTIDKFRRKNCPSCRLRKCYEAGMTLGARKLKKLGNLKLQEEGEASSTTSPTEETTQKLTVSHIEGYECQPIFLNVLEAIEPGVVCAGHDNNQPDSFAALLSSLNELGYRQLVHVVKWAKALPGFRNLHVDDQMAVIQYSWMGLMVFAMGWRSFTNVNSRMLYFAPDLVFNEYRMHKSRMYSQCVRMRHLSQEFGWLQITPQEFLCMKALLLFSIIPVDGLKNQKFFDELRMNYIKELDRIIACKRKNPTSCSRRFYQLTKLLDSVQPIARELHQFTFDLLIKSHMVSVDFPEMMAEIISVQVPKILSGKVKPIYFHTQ
Nature of the assay: cell-based. To be noted: IC50 (antagonistic activity).

Chain of AR T877A (P10275 whole entry T878A): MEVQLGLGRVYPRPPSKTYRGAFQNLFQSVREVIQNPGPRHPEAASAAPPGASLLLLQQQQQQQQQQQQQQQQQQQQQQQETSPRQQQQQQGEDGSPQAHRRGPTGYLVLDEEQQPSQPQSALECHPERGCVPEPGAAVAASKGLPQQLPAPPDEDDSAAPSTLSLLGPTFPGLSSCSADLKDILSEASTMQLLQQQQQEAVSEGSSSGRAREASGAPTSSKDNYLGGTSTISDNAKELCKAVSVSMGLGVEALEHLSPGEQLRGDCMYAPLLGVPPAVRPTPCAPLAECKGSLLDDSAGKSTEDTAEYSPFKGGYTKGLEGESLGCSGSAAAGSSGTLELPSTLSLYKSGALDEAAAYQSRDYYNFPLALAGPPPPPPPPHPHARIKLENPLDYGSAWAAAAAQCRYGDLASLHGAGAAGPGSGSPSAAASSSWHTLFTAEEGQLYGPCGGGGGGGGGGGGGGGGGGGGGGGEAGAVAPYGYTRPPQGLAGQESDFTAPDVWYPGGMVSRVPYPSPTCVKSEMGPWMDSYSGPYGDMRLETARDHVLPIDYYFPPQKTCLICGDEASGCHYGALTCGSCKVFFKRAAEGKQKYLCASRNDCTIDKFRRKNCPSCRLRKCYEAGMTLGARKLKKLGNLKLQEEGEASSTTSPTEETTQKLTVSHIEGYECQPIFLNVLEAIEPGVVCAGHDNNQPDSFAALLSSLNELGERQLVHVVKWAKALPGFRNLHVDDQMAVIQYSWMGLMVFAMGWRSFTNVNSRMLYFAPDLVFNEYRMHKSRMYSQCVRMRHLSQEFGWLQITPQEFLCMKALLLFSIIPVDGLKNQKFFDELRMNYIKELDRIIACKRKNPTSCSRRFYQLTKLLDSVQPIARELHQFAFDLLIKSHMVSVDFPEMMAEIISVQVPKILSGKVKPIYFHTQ

In the case of `CC(C)(O)COc1ccc(CN2C(=S)N(c3ccc(C#N)c(C(F)(F)F)c3)C(=O)C2(C)C)cn1` [BAY 1024767], the 50% growth inhibitory concentration (GI50) with LAPC-4 (AR wild-type) was 46 nM; in assay [1] it was 229 nM; in [2], 41 nM; in the assay on LNCaP (AR 877A) it was 221 nM. For the same compound, the “AR binding to the PSA enhancer” value in assay [3] is “entirely prevented”. Moreover, the “PSA and FKBP5 expression” value in assay [4] and in [5] was “dose-dependent down-regulations” in each case. Moreover, the IC50 against AR T877A (R1881 0.1 nM) amounted to 320 nM; against AR T877A (R1881 1 nM), 1100 nM; at AR E709Y (R1881 0.1 nM), 30 nM; on AR E709Y (R1881 1 nM), 130 nM; at AR E709Y (R1881 10 nM) it was 610 nM. In addition, the “agonistic effect” value in [6] is recorded as “No dose-dependent agonistic activity”.
